Laboratory results reported in patent publication US20240199605A1, “SMALL MOLECULAR INHIBITORS OF NF-kB INDUCING KINASE” (Janssen Pharmaceutica NV, priority 2019, published 2024).
Like-named read-outs stand apart in the source and are kept apart here.

What was measured:
[1] = test system: p-IKKα levels in L363 (NIK translocated multiple myeloma) cells; assay: Effect of compounds on p-IKKα levels in L363 cells (AlphaLISA SureFire Ultra); assay type: cell-based, human; conditions: BAFF stimulated, MG132, 6 h, average of values, read-out: Assay 2 IC50
Method in brief: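 Inhibition of p-IKKα (Ser176/180) read by AlphaLISA after 6 h, 37 °C compound exposure (11-point 1:3 series, 0.3% DMSO) of L363 cells pre-incubated overnight ± 250 ng/ml BAFF and plated ± BAFF ± 10 μM MG132. Normalised to BAFF/MG132/DMSO and unstimulated controls; IC50 by sigmoidal fitting, duplicates.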

[2] = biological target: recombinant human NF-kappaB-inducing kinase (NIK/MAP3K14) (Homo sapiens (Human), UniProt Q99558); assay: Inhibition of auto-phosphorylation of recombinant human NIK/MAP3K14 (AlphaScreen); assay type: biochemical; conditions: NIK auto-phosphorylation, 5 μM ATP, 1 nM NIK, 2 h at 25° C.; average of values
Sequence of recombinant human NF-kappaB-inducing kinase (NIK/MAP3K14) (Q99558 whole entry): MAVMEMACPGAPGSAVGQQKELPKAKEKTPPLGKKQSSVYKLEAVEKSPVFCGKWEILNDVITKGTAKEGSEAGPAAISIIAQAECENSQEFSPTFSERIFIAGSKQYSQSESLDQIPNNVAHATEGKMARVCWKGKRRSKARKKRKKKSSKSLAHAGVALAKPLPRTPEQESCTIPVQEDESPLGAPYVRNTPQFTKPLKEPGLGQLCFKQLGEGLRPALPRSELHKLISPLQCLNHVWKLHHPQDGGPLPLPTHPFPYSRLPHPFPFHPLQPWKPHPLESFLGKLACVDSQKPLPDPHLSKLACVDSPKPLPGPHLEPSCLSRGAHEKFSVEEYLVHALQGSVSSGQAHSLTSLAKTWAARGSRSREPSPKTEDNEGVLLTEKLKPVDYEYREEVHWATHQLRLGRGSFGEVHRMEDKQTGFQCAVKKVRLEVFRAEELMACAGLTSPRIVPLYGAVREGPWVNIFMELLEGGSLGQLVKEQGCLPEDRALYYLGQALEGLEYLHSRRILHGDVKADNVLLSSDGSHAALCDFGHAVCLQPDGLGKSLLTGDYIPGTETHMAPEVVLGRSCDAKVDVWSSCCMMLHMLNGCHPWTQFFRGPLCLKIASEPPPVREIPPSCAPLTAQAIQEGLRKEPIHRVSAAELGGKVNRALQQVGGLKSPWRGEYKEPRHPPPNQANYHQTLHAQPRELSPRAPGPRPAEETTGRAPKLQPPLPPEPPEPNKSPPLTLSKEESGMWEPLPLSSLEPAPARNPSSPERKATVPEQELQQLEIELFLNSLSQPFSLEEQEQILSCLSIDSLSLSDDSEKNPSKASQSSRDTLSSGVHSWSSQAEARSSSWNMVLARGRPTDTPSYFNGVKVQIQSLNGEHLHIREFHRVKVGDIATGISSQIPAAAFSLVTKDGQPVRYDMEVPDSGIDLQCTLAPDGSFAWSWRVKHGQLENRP
Method in brief: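 AlphaScreen read-out (anti-phospho-IKK Ser176/180 antibody, Protein A acceptor and glutathione donor beads) of NIK auto-phosphorylation. Reaction: 1 nM enzyme, 5 μM ATP, Tris pH 7.5 buffer with Mg2+ and vanadate, 2 h at 25° C., final DMSO 0.7%. IC50 came from a sigmoidal curve fit.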

Row | Compound | IC50 ([1]; Homo sapiens, L-363, 6 h) [nM] | IC50 [2] [nM] | IC50 [1] [nM]
1 | CN1CC[C@@](O)(C#Cc2cccc(-c3ccc4c(CN5CCCC5)cnc(N)c4n3)c2)C1=O [Example 171, (R)-3-[2-[3-[8-Amino-5-(pyrrolidin-1-ylmethyl)-1,7-naphthyridin-2-yl]phenyl]ethynyl]-3-hydroxy-1-methyl-pyrrolidin-2-one] | 180 | 4 | –
2 | C[C@@](O)(C#Cc1cccc(-c2ccc3ccnc(N)c3n2)c1)c1nccs1 [Example 90, (R)-4-[3-(8-Amino-1,7-naphthyridin-2-yl)phenyl]-2-thiazol-2-yl-but-3-yn-2-ol] | 70 | ≤ 0.5 | –
3 | CN1CC[C@@](O)(C#Cc2cccc(-c3cc(C4CC4)c4ncnc(N)c4n3)c2)C1=O [Example 302, (R)-3-((3-(4-Amino-8-cyclopropylpyrido[3,2-d]pyrimidin-6-yl)phenyl)ethynyl)-3-hydroxy-1-methylpyrrolidin-2-one] | 4.5 | ≤ 0.5 | –
4 | Cc1nc(N)c2nc(-c3cccc(C#C[C@](C)(O)c4ncccn4)c3)ccc2n1 [Example 198, (S)-4-[3-(4-Amino-2-methyl-pyrido[3,2-d]pyrimidin-6-yl)phenyl]-2-pyrimidin-2-yl-but-3-yn-2-ol] | > 5000 | 1310 | –
5 | Cc1cnc(N)c2nc(-c3cccc(C#C[C@]4(O)CCN(C)C4=O)c3)ccc12 [Example 120, (R)-3-[2-[3-(8-Amino-5-methyl-1,7-naphthyridin-2-yl)phenyl]ethynyl]-3-hydroxy-1-methyl-pyrrolidin-2-one] | 21 | ≤ 0.5 | –
6 | CN1CC[C@@](O)(C#Cc2cccc(-c3ccc4cnnc(N)c4c3)c2)C1=O [Example 96, (R)-3-[2-[3-(4-Aminophthalazin-6-yl)phenyl]ethynyl]-3-hydroxy-1-methyl-pyrrolidin-2-one] | > 5000 | 29 | –
7 | CN1CC[C@@](O)(C#Cc2cccc(-c3ccc4c(c3)c(N)nn4C(=O)OC(C)(C)C)c2)C1=O [Example 169, (R)-tert-Butyl 3-amino-5-[3-[2-(3-hydroxy-1-methyl-2-oxo-pyrrolidin-3-yl)ethynyl]phenyl]indazole-1-carboxylate] | > 5000 | 1210 | –
8 | Cc1nnc([C@](C)(O)C#Cc2cccc(-c3ccc4ncnc(N)c4c3)c2)o1 [Example 106, (R)-4-[3-(4-Aminoquinazolin-6-yl)phenyl]-2-(5-methyl-1,3,4-oxadiazol-2-yl)but-3-yn-2-ol] | 1450 | 14 | –
9 | CN1CC[C@@](O)(C#Cc2cccc(-c3ccc4ncnc(N5CCC5)c4c3)c2)C1=O [Example 243, (R)-3-((3-(4-(Azetidin-1-yl)quinazolin-6-yl)phenyl)ethynyl)-3-hydroxy-1-methylpyrrolidin-2-one] | 670 | 14 | –
10 | Cc1cc([C@](C)(O)C#Cc2ccc(C)c(-c3ccc4ccnc(N)c4c3)c2)no1 [Example 79, (R)-4-[3-(1-Amino-7-isoquinolyl)-4-methyl-phenyl]-2-(5-methylisoxazol-3-yl)but-3-yn-2-ol] | > 5000 | 590 | –
11 | CN1CCC(O)(C#Cc2cccc(-c3ncc4ccnc(N5CCC5)c4n3)c2)C1=O (stereo in doubt) [Example 248, (S)-3-((3-(8-(Azetidin-1-yl)pyrido[3,4-d]pyrimidin-2-yl)phenyl)ethynyl)-3-hydroxy-1-methylpyrrolidin-2-one] | – | 3340 | > 5000
12 | Cc1ccc(C#C[C@]2(O)CCN(CC(F)(F)F)C2=O)cc1-c1ccc2ccnc(N)c2c1 [Example 77, (R)-3-[2-[3-(1-Amino-7-isoquinolyl)-4-methyl-phenyl]ethynyl]-3-hydroxy-1-(2,2,2-trifluoroethyl)pyrrolidin-2-one] | > 5000 | > 5000 | –
13 | Cc1ccc(C#C[C@]2(O)CCN(C)C2=O)cc1-c1ncc2c(C)cnc(N)c2n1 [Example 65, (R)-3-[2-[3-(8-Amino-5-methyl-pyrido[3,4-d]pyrimidin-2-yl)-4-methyl-phenyl]ethynyl]-3-hydroxy-1-methyl-pyrrolidin-2-one] | 48 | 1 | –
14 | CNc1ncnc2ccc(-c3cccc(C#C[C@]4(O)CCN(C)C4=O)c3)nc12 [Example 27, (R)-3-Hydroxy-1-methyl-3-((3-(4-(methylamino)pyrido[3,2-d]pyrimidin-6-yl)phenyl)ethynyl)pyrrolidin-2-one] | 240 | 7.8 | –
15 | Cc1nc(-c2cccc(C#C[C@]3(O)CCN(C)C3=O)c2)cc2c(N)ncnc12 [Example 136, (R)-3-[2-[3-(4-Amino-8-methyl-pyrido[3,4-d]pyrimidin-6-yl)phenyl]ethynyl]-3-hydroxy-1-methyl-pyrrolidin-2-one] | 60 | 0.7 | –
16 | Cc1cc([C@](C)(O)C#Cc2ccc(C)c(-c3nc4c(N)ncnc4s3)c2)no1 [Example 217, (R)-4-[3-(7-Aminothiazolo[5,4-d]pyrimidin-2-yl)-4-methyl-phenyl]-2-(5-methylisoxazol-3-yl)but-3-yn-2-ol] | 77 | 0.9 | –
17 | C[C@@](O)(C#Cc1cccc(-c2ncc3ccnc(N)c3n2)c1)c1nccs1 [Example 32, (R)-4-[3-(8-Aminopyrido[3,4-d]pyrimidin-2-yl)phenyl]-2-thiazol-2-yl-but-3-yn-2-ol] | 12 | ≤ 0.5 | –
18 | COc1ccc(C#C[C@]2(O)CCN(C)C2=O)cc1-c1ncc2ccnc(N)c2n1 [Example 53, (R)-3-((3-(8-Aminopyrido[3,4-d]pyrimidin-2-yl)-4-methoxyphenyl)ethynyl)-3-hydroxy-1-methylpyrrolidin-2-one] | 49 | 2 | –
19 | CN1CC[C@@](O)(C#Cc2cccc(-c3ccc4nc(CO)nc(N)c4n3)c2)C1=O [Example 173, (R)-3-((3-(4-Amino-2-(hydroxymethyl)pyrido[3,2-d]pyrimidin-6-yl)phenyl)ethynyl)-3-hydroxy-1-methylpyrrolidin-2-one] | 180 | 12 | –
20 | Cc1n[nH]c(C)c1-c1cnc(N)c2nc(-c3cccc(C#C[C@]4(O)CCN(C)C4=O)c3)ncc12 [Example 125, (R)-3-[2-[3-[8-Amino-5-(3,5-dimethyl-1H-pyrazol-4-yl)pyrido[3,4-d]pyrimidin-2-yl]phenyl]ethynyl]-3-hydroxy-1-methyl-pyrrolidin-2-one] | 18 | ≤ 0.5 | –
21 | Nc1ncnc2cnc(-c3cccc(C#C[C@]4(O)CCn5ccnc54)c3)nc12 [Example 146, (R)-7-[2-[3-(4-Aminopyrimido[5,4-d]pyrimidin-6-yl)phenyl]ethynyl]-5,6-dihydropyrrolo[1,2-a]imidazol-7-ol] | 2.7 | ≤ 0.5 | –
22 | CC(=O)Nc1nc(C)nc2ccc(-c3cccc(C#C[C@]4(O)CCN(C)C4=O)c3)nc12 [Example 258, (R)—N-(6-(3-((3-Hydroxy-1-methyl-2-oxopyrrolidin-3-yl)ethynyl)phenyl)-2-methylpyrido[3,2-d]pyrimidin-4-yl)acetamide] | 450 | 210 | –
23 | Cc1cnc(N)c2nc(-c3cccc(C#C[C@@](C)(O)c4nccs4)c3)ncc12 [Example 50, (R)-4-(3-(8-Amino-5-methylpyrido[3,4-d]pyrimidin-2-yl)phenyl)-2-(thiazol-2-yl)but-3-yn-2-ol] | 17 | ≤ 0.5 | –
24 | CN1CC[C@@](O)(C#Cc2cccc(-c3cnc4ncnc(N)c4n3)c2)C1=O [Example 15, (R)-3-[2-[3-(4-Aminopteridin-6-yl)phenyl]ethynyl]-3-hydroxy-1-methyl-pyrrolidin-2-one] | 50 | 0.9 | –
25 | CN1CC[C@@](O)(C#Cc2cccc(-c3nc4c(N)nccc4s3)c2)C1=O [Example 116, (R)-3-((3-(4-Aminothiazolo[4,5-c]pyridin-2-yl)phenyl)ethynyl)-3-hydroxy-1-methylpyrrolidin-2-one] | 47 | 0.9 | –
26 | Cc1ccc(C#C[C@@](C)(O)c2nccs2)cc1-c1ncc2ccnc(N)c2n1 [Example 69, (R)-4-(3-(8-Aminopyrido[3,4-d]pyrimidin-2-yl)-4-methylphenyl)-2-(thiazol-2-yl)but-3-yn-2-ol] | 150 | 1 | –
27 | Cc1nc(N)c2nc(-c3cccc(C#C[C@](C)(O)c4ncc(C)s4)c3)ccc2n1 [Example 166, (S)-4-(3-(4-Amino-2-methylpyrido[3,2-d]pyrimidin-6-yl)phenyl)-2-(5-methylthiazol-2-yl)but-3-yn-2-ol] | > 5000 | 4700 | –
28 | [2H]C([2H])([2H])N1CCC(O)(C#Cc2cccc(-c3ncc4ccnc(N)c4n3)c2)C1=O (stereo in doubt) [Example 67, (S)-3-[2-[3-(8-Aminopyrido[3,4-d]pyrimidin-2-yl)phenyl]ethynyl]-3-hydroxy-1-(trideuteriomethyl)pyrrolidin-2-one] | 350 | 11 | –
29 | CN1CC[C@@](O)(C#Cc2cccc(-c3nc4c(N)ncnc4o3)c2)C1=O [Example 142, (R)-3-((3-(7-Aminooxazolo[5,4-d]pyrimidin-2-yl)phenyl)ethynyl)-3-hydroxy-1-methylpyrrolidin-2-one] | > 5000 | 350 | –
30 | CN1CC[C@@](O)(C#Cc2cccc(-c3ncc4c(CN5CCCC5)cnc(N)c4n3)c2)C1=O [Example 133, (R)-3-[2-[3-[8-Amino-5-(pyrrolidin-1-ylmethyl)pyrido[3,4-d]pyrimidin-2-yl]phenyl]ethynyl]-3-hydroxy-1-methyl-pyrrolidin-2-one] | 400 | 6.8 | –
